Patent publication EP1957493B1, “8-AZABICYCLO[3.2.1]OCTANE DERIVATIVES USEFUL AS MONOAMINE REUPTAKE INHIBITORS” (N.V. Organon, priority 2005, dated 2007)
Like-named read-outs stand apart in the source and are kept apart here.

Experiments:
Format in all cases: cell-based
[1] = molecular target: T1, human dopamine transporter (hDAT) (Homo sapiens, UniProt Q01959); assay: Assay of monoamine uptake: inhibition of dopamine uptake
T1 construct: expressed in transfected cells
Procedure: (§1) The in vitro test for the inhibition of dopamine and serotonin uptake was performed in Chinese Hamster Ovary cells expressing the human dopamine transporter (hDAT) or the human serotonin transporter (hSERT). The in vitro test for the inhibition of noradrenaline uptake was performed in Madin Darby Canine Kidney Cells (MDCK) expressing the human noradrenaline transporter (hNET).
(§2) Briefly, cell lines stably overexpressing the appropriate human transporter were propagated and plated according to standard cell culture techniques. Following plating, cells were left to adhere for either one or two days. A 6-point serial dilution (normally 1 E-5M to 1E-10M) of test and reference compounds was prepared, added to the washed cells and incubated for 5 minutes at ambient temperature for dopamine or serotonin transporter overexpressing and 37°C for noradrenaline overexpressing cells. Next, a final concentration of 20 nM of appropriate neurotransmitter (mixture of [^3H]-neurotransmitter and non-labelled neurtoransmitter) was added and the cells were incubated for three or five minutes at ambient temperature for dopamine or serotonin transporter overexpressing cells or ten minutes at 37°C for noradrenaline overexpressing cells. Following termination of the assay, Microscint-20 was added directly to the cells and the amount of radioactivity taken up by the cells was estimated by scintillation counting.
(§3) pEC50 values indicating inhibition of monoamine uptake were calculated using standard curve fitting techniques.

[2] = molecular target: T2, human noradrenaline transporter (hNET) (Homo sapiens, UniProt P23975); assay: Assay of monoamine uptake: inhibition of noradrenaline uptake
T2 construct: expressed in transfected cells
Procedure: as §1, §2, §3

[3] = molecular target: T3, human serotonin transporter (hSERT) (Homo sapiens, UniProt P31645); assay: Assay of monoamine uptake: inhibition of serotonin uptake
T3 construct: expressed in transfected cells
Procedure: as §1, §2, §3

[4] = inhibition of dopamine uptake, Chinese Hamster Ovary cells expressing hDAT, 20 nM neurotransmitter ([3H]-labelled and non-labelled), ambient temperature, read-out: hDAT
[5] = inhibition of noradrenaline uptake, Madin Darby Canine Kidney Cells (MDCK) expressing hNET, 20 nM neurotransmitter ([3H]-labelled and non-labelled), 37°C, read-out: hNET
[6] = inhibition of serotonin uptake, Chinese Hamster Ovary cells expressing hSERT, 20 nM neurotransmitter ([3H]-labelled and non-labelled), ambient temperature, read-out: hSERT

T1 sequence (Q01959 whole entry): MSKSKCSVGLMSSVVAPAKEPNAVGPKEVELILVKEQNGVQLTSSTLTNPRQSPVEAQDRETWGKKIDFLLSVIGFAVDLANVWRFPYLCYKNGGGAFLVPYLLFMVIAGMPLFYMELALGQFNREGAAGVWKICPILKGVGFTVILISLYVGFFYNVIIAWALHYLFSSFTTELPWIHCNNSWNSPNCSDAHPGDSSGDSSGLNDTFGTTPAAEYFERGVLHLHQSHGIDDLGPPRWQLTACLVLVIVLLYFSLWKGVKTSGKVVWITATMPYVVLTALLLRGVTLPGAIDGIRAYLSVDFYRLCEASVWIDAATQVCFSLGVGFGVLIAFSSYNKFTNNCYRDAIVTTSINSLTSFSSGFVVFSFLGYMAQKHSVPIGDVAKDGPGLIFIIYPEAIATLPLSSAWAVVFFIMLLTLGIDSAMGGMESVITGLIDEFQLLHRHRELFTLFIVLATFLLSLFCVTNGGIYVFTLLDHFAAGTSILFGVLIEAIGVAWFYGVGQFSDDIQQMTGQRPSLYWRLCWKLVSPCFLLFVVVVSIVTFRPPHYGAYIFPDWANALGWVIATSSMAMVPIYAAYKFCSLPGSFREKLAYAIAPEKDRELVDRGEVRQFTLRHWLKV
T3 sequence (P31645 whole entry): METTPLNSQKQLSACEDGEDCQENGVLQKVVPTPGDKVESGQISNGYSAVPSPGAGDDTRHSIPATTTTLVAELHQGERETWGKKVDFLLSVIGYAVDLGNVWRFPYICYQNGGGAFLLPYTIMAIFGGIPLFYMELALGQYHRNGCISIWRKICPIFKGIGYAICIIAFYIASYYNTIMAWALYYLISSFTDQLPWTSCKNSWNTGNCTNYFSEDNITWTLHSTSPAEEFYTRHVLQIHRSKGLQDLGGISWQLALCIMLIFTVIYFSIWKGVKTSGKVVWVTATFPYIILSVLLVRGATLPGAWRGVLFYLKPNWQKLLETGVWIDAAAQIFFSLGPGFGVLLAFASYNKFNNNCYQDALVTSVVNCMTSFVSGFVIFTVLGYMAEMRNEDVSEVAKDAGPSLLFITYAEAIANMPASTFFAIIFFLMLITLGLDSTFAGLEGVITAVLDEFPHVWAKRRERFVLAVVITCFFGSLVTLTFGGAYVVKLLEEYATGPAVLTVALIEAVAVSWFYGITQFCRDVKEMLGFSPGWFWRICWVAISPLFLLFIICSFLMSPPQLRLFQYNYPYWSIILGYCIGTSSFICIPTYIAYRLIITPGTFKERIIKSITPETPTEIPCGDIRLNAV
T2 sequence (P23975 whole entry): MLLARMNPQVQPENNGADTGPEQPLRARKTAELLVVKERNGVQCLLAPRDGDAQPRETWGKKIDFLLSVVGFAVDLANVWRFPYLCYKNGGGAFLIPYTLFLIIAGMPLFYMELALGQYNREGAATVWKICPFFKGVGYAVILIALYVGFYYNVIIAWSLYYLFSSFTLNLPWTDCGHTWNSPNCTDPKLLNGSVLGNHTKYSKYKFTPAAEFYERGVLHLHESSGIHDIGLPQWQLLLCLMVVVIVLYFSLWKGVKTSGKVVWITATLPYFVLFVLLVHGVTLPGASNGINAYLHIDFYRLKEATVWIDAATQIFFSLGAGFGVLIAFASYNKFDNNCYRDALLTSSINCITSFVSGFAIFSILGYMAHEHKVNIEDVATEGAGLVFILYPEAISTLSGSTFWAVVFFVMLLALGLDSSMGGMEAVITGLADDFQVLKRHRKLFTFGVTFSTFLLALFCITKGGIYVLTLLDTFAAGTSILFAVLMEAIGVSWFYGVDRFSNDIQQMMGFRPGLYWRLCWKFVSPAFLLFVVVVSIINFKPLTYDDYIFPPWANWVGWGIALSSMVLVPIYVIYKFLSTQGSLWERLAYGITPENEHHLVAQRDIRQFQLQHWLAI

Structure (SMILES)	EC50 [1]	EC50 [2]	EC50 [3]	EC50 [1, 4]	EC50 [2, 5]	EC50 [3, 6]
c1ccc(Oc2cccc(OC3CC4CCC(C3)N4)c2)cc1 (stereo not drawn) [Example 111.5, 3-endo-(3-Phenoxyphenoxy)-8-azabicyclo[3.2.1]octane]	< 0.1 µM	0.1 to 1 µM	> 1 µM			
N#Cc1ccc(-c2cc(C#N)cc(OC3CC4CCC(C3)N4)c2)nc1 (stereo not drawn) [Example IX.3, exo 6-(3-(8-Azabicyclo[3.2.1]oct-3-yloxy)-5-cyanophenyl)nicotinonitrile]				> 1 µM	> 1 µM	< 0.1 µM
FC(F)(F)c1ccccc1-c1cccc(OC2CC3CCC(C2)N3)c1 (stereo not drawn) [IV.8, 3-exo-(2'-Trifluoromethylbiphenyl-3-yloxy)-8-azabicyclo[3.2.1]octane]				> 1 µM	< 0.1 µM	0.1 to 1 µM
COc1cc(Oc2ccccc2)cc(OC2CC3CCC(C2)N3)c1F (stereo not drawn) [IV.9, 3-exo-(2-Fluoro-3-methoxy-5-phenoxyphenoxy)-8-azabicyclo[3.2.1]octane]				< 0.1 µM	< 0.1 µM	> 1 µM
Clc1cc(Oc2ccccc2)cc(O[C@@H]2C[C@H]3CC[C@@H](C2)N3)c1 [IV.19, 3-exo-(3-Chloro-5-phenoxyphenoxy)-8-azabicyclo[3.2.1]octane]				< 0.1 µM	< 0.1 µM	> 1 µM
FC(F)(F)c1ccc(OC2CC3CCC(C2)N3)cc1-c1ccccc1 (stereo not drawn) [VI.3, 3-exo-(6-Trifluoromethylbiphenyl-3-yloxy)-8-azabicyclo[3.2.1]octane]				> 1 µM	> 1 µM	0.1 to 1 µM
N#Cc1ccc(-c2cc(C#N)cc(OC3CC4CCC(C3)N4)c2)cc1 (stereo not drawn) [VI.8, exo 5-(8-Azabicyclo[3.2.1]oct-3-yloxy)-biphenyl-3,4'-dicarbonitrile]				> 1 µM	> 1 µM	< 0.1 µM
